Where a name gives a salt, the structure may show the parent alone.
What was measured:
Format in all cases: biochemical
JAK3 = molecular target: T1, JAK3 (Homo sapiens, UniProt P52333); assay: JAK3 inhibition (Table 4); conditions: read-out: JAK3 Ki
T1 construct: made in house; host or cells: SF9 insect cells (baculovirus)

JAK1 = molecular target: T2, JAK1 (Homo sapiens, UniProt P23458); assay: JAK1 inhibition (Table 4); conditions: read-out: JAK1 Ki
T2 construct: made in house; host or cells: SF9 insect cells (baculovirus)

TYK2 = molecular target: T3, TYK2 (Homo sapiens, UniProt P29597); assay: TYK2 inhibition (Table 4)
T3 construct: made in house; host or cells: SF9 insect cells (baculovirus)
T3 sequence (P29597 873-1187): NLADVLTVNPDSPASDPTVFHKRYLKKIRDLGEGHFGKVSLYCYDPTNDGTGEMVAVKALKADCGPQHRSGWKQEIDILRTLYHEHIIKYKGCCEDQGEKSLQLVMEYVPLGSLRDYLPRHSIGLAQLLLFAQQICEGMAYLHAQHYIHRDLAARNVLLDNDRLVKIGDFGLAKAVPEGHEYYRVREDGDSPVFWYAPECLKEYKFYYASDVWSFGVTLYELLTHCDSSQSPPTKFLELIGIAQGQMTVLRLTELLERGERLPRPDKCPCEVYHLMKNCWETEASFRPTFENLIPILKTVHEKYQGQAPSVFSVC

JAK2 = molecular target: T4, JAK2 (Homo sapiens, UniProt O60674); assay: JAK2 inhibition (Table 4); conditions: read-out: JAK2 Ki
T4 construct: made in house; host or cells: SF9 insect cells (baculovirus)
T4 sequence (O60674 812-1132): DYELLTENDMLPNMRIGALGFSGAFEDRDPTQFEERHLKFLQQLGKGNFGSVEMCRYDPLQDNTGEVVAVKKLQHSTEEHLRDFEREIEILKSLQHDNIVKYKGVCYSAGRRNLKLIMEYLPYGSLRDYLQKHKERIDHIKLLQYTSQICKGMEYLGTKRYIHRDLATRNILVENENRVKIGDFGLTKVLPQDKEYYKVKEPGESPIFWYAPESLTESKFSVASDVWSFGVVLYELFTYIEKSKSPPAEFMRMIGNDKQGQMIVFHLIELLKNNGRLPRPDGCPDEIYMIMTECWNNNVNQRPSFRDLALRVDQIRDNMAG

T1 sequence (P52333 783-1124): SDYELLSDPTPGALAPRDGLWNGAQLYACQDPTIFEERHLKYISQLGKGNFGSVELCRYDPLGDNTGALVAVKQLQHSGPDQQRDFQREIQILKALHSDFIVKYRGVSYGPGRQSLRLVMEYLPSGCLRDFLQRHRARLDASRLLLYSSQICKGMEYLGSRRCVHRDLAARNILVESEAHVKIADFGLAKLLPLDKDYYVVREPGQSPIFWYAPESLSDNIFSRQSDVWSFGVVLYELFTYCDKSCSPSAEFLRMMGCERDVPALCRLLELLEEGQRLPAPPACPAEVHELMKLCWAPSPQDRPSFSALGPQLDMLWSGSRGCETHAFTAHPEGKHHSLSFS
T2 sequence (P23458 852-1154): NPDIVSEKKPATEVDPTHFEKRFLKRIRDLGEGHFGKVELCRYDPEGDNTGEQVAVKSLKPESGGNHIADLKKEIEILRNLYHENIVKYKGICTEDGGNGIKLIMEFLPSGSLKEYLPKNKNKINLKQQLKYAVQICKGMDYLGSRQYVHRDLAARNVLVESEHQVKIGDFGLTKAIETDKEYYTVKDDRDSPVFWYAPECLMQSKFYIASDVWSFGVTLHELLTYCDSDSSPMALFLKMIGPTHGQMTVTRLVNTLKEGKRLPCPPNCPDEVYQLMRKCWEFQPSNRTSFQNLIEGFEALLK

Row | SMILES | Ki (JAK3) [nM] | Ki (JAK1) [nM] | Ki (TYK2) [nM] | Ki (JAK2) [nM]
1 | CCC(C)Cc1nc2cnc3[nH]ccc3c2n1C1CCN(CCC#N)CC1 (racemic) [Example 122, 3-{4-[2-(2-Methyl-butyl)-6H-1,2,3,5,6-tetraaza-as-indacen-1-yl]-piperidin-1-yl}-propionitrile] | 83.4 | 62.3 | 1050 | 281
2 | CC1CN(Cc2ccccc2)CCC1n1cnc2cnc3[nH]ccc3c21 (racemic) [Example 149, Racemic cis 1-(1-Benzyl-3-methyl-piperidin-4-yl)-1,6-dihydro-1,2,3,5,6-tetraaza-as-indacene] | 20.3 | 0.98 | 18.4 | 1.61
3 | CC1CN(Cc2ccccc2)CCC1n1cnc2cnc3[nH]ccc3c21 (racemic) [Example 150, Racemic trans 1-(1-Benzyl-3-methyl-piperidin-4-yl)-1,6-dihydro-1,2,3,5,6-tetraaza-as-indacene dihydrochloride] | 17.7 | 4.17 | 292 | 11.9
4 | Cc1nc2cnc3[nH]ccc3c2n1C1CCN(Cc2ccccc2)CC1C (racemic) [Example 151, Racemic 1-(1-benzyl-3-methyl-piperidin-4-yl)-2-methyl-1,6-dihydro-1,2,3,5,6-tetraaza-as-indacene dihydrochloride salt] | 13.5 | 1.78 | 31.2 | 2.27
5 | CC(O)c1nc2cnc3[nH]ccc3c2n1C1CCN(Cc2cccc(C#N)c2)CC1 (racemic) [Example 156, Racemic 3-{4-[2-(1-Hydroxy-ethyl)-6H-1,2,3,5,6-tetraaza-as-indacen-1-yl]-piperidin-1-ylmethyl}-benzonitrile] | 84.6 | 2.13 | 209 | 16.3
6 | CC(O)c1nc2cnc3[nH]ccc3c2n1C1CCN(Cc2ccccc2)CC1 (racemic) [Example 157, Racemic 1-[1-(1-Benzyl-piperidin-4-yl)-1,6-dihydro-1,2,3,5,6-tetraaza-as-indacen-2-yl]-ethanol] | 34 | 3.59 | 207 | 25.1

The remaining lines, values ahead:

Row | Ki (JAK3) [nM] | Ki (JAK1) [nM] | Ki (TYK2) [nM] | Ki (JAK2) [nM] | SMILES
7 | 418 | 15.5 | 193 | 15.2 | COC(=O)CC(c1cccnc1)N1CCC(n2cnc3cnc4[nH]ccc4c32)CC1 (racemic) [Example 126, 3-pyridin-3-yl-3-[4-(6H-1,2,3,5,6-tetraaza-as-indacen-1-yl)-piperidin-1-yl]-propionic acid methyl ester]
8 | 8.46 | 2.6 | 26.1 | 1.82 | CC1CC(n2cnc3cnc4[nH]ccc4c32)CCN1Cc1ccccc1 (racemic) [Example 127, 1-(1-Benzyl-2-methyl-piperidin-4-yl)-1,6-dihydro-1,2,3,5,6-tetraaza-as-indacene]
9 | 60.8 | 2.09 | 82.6 | 2.11 | CC1CC(n2cnc3cnc4[nH]ccc4c32)CCN1Cc1ccccc1 (racemic) [Example 128, 1-(1-Benzyl-2-methyl-piperidin-4-yl)-1,6-dihydro-1,2,3,5,6-tetraaza-as-indacene]
10 | 535 | 43.8 | 312 | 57.2 | O=C1CC(n2cnc3cnc4[nH]ccc4c32)CCN1Cc1ccccc1 (racemic) [Example 129, 1-Benzyl-4-(6H-1,2,3,5,6-tetraaza-as-indacen-1-yl)-piperidin-2-one]
11 | 2280 | 126 | 622 | 389 | O=C1CCC(n2cnc3cnc4[nH]ccc4c32)CN1 (racemic) [Example 130, 5-(6H-1,2,3,5,6-Tetraaza-as-indacen-1-yl)-piperidin-2-one]
12 | 297 | 54.2 | 798 | 150 | O=C1CC(n2cnc3cnc4[nH]ccc4c32)CCN1 (racemic) [Example 133, 4-(6H-1,2,3,5,6-Tetraaza-as-indacen-1-yl)-piperidin-2-one]

— patent US8461328B2, “Tricyclic heterocyclic compounds, compositions and methods of use thereof” (Genentech, Inc., priority 2010, dated 2013)
